US7943749B2, “Antimicrobial 2-deoxystreptamine compounds” (Isis Pharmaceuticals, Inc., priority 2004, dated 2011)
pIC50, pKd: −log10 of the molar value. Several values for one entry are separate records, joined by “and”; a condition that tells them apart may be missing. Identical values can stand only once. Like-named read-outs stand apart in the source and are kept apart here.

What was measured:
[1] = test system: E. Coli; assay: MIC, E. Coli; assay type: cell-based; details: 24 h;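 also: minimum inhibitory concentration determined in duplicate in 96-well plates, compounds given in 4% aqueous DMSO, with ampicillin and tetracycline as positive controls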
Experimental: (§1) The MIC assays are carried out in 150 μL volume in duplicate in 96-well clear flat-bottom plates. The bacterial suspension from an overnight culture growth in appropriate medium is added to a solution of test compound in 4% DMSO in water. Final bacterial inoculum is approximately 10^5-10^6 CFU/well. […] Both ampicillin and tetracycline are used as antibiotic-positive controls in each screening assay for S. pyogenes, E. coli imp-, E. coli, S. aureus, E. faecalis, K. pneumoniae and P. vulgaris. Ciprofloxacin is used as an antibiotic positive control in each screening assay for P. aeruginosa.

[2] = test system: S. Aureus; assay: MIC, S. Aureus; assay type: cell-based; details: 24 h
Experimental: as §1

[3] = test system: E. coli S30 bacterial extract (pBestLuc luciferase reporter); assay: Coupled bacterial transcription/translation assay; assay type: biochemical; details: read-out: Trans/trans IC50
Experimental: The DNA template, pBestLuc™ (Promega), is a plasmid containing a reporter gene for firefly luciferase fused to a strong tac promoter and ribosome binding site. Messenger RNA from 1 μg pBestLuc is transcribed and translated in E. coli S30 bacterial extract in the presence or absence of test compound. Compounds are tested in a black 96 well microtiter plate with an assay volume of 35 μL. […] The transcription/translation reaction is incubated for 35 minutes at 37° C. followed by detection of functional luciferase with the addition of 30 μL LucLite™ (Packard). Light output is quantitated on a Packard TopCount.

[4] = target: 16S ribosomal subunit RNA target; assay: Mass spectrometry based binding assay (FTICR), 16S
Experimental: In a typical experiment, 10 μL of an aqueous solution containing 100 mM ammonium acetate buffer, 2.5 or 5 μM of each RNA, and 33% isopropyl alcohol (to aid ion desolvation) was prepared with different concentrations of each ligand or ligand mixture. Samples were introduced into the electrospray ionization source (negative ionization mode) at 1 μL/min and ions were stored for 1 sec in an RF-only hexapole following desolvation. The abundances were integrated from the respective ions for free RNA and the ligand-RNA complex. The primary (1:1 RNA:ligand) and secondary (1:2 complex, if observed). […] The peak ratios were measured at each concentration, then a plot of complex/free RNA versus concentration of ligand added was fitted to a second (or higher) order binding polynomial to determine the KD.

[5] = test system: S. aureus (ATCC 13709)
Experimental: Male ICR mice are fed with autoclaved commercial food pellets and sterile water ad libitum. Animals are inoculated intraperitoneally with 1.0×10^6 CFU/0.5 mL/mouse of S. aureus (ATCC 13709) containing 10% mucin. Ten animals each are randomly assigned to either control or treatment groups. Test compound and gentamycin (included as a positive control) are both administered subcutaneously one and 3 hour after infection. Test compound is administered as an aqueous buffer solution (phosphate buffered saline (PBS), pH=7.4). The data is presented as the number of mice out of the 10 in the group that were not protected from lethal infection.

[6] = range between growth and complete inhibition

Structure (SMILES)	MIC E. Coli. [1, 6]	MIC S. Aureus [2, 6]	pIC50 [3]	pKd [4]	MIC E. Coli. [1]	MIC S. Aureus [2]	other results
NCCN(CCN)CCOC1C(OC2C(O)C(N)CC(N)C2OC2OC(CO)C(O)C(O)C2N)OC(CO)C1OC1OC(CN)C(O)C(O)C1N (stereo not shown) [IBIS00560172]	>50 µM	25 to 50 µM	–	–	–	–	–
CN(C)CCOC1C(OC2C(O)C(N)CC(N)C2OC2OC(CO)C(O)C(O)C2N)OC(CO)C1OC1OC(CN)C(O)C(O)C1N (stereo not shown) [IBIS00560174]	12 to 52 µM	6 to 12 µM	6.68	6.03	–	–	–
NCCCNCCOC1C(OC2C(O)C(N)CC(N)C2OC2OC(CO)C(O)C(O)C2N)OC(CO)C1OC1OC(CN)C(O)C(O)C1N (stereo not shown) [IBIS00560175]	25 to 50 µM and 25 µM	3 to 6 µM and 3 µM	6.54	–	–	–	–
NCCNCCOC1C(OC2C(O)C(N)CC(N)C2OC2OC(CO)C(O)C(O)C2N)OC(CO)C1OC1OC(CN)C(O)C(O)C1N (stereo not shown) [IBIS00560177]	6 µM and 6 to 12 µM	2 µM and 2 to 3 µM	6.54	–	–	–	–
NCC1OC(OC2C(CO)OC(OC3C(O)C(N)CC(N)C3OC3OC(CO)C(O)C(O)C3N)C2OCCNC2CCCNC2)C(N)C(O)C1O (stereo not shown) [IBIS00560725]	1.5-3^ μM	3 to 6 µM	7.10	6.96	–	–	–
NCC1OC(OC2C(CO)OC(OC3C(O)C(N)CC(N)C3OC3OC(CO)C(O)C(O)C3N)C2OCCNCC2CCCNC2)C(N)C(O)C1O (stereo not shown) [IBIS00560726]	–	–	–	6.60 and 6.89	–	–	–
NCC1OC(OC2C(CO)OC(OC3C(O)C(N)CC(N)C3OC3OC(CO)C(O)C(O)C3N)C2OCCNCc2nc3ccccc3[nH]2)C(N)C(O)C1O (stereo not shown) [IBIS00560797]	6 to 12 µM	25 to 50 µM	6.47	5.39	–	–	–
NCC1OC(OC2C(CO)OC(OC3C(O)C(N)CC(N)C3OC3OC(CO)C(O)C(O)C3N)C2OCCNc2cccnc2)C(N)C(O)C1O (stereo not shown) [IBIS00560798]	3 to 6 µM	0.6-1^ μM	7.10	6.26	–	–	–
NCC1OC(OC2C(CO)OC(OC3C(O)C(N)CC(N)C3OC3OC(CO)C(O)C(O)C3N)C2OCCNC2CCCCC2)C(N)C(O)C1O (stereo not shown) [IBIS00560931]	–	–	–	–	3 to 6 µM	3 to 5 µM	–
NCC1OC(OC2C(CO)OC(OC3C(O)C(N)CC(N)C3OC3OC(CO)C(O)C(O)C3N)C2OCCNc2ccccc2)C(N)C(O)C1O (stereo not shown) [IBIS00560932]	–	–	–	–	50 to 100 µM	6 to 12 µM	–
NCC1OC(OC2C(CO)OC(OC3C(O)C(N)CC(N)C3OC3OC(CO)C(O)C(O)C3N)C2OCCNCc2ccnc(N)c2)C(N)C(O)C1O (stereo not shown) [IBIS00560965]	–	–	–	–	6 to 12 µM	0.6-1^ μM	–
NCC1OC(OC2C(CO)OC(OC3C(O)C(N)CC(N)C3OC3OC(CO)C(O)C(O)C3N)C2OCCNCCc2cccnc2)C(N)C(O)C1O (stereo not shown) [IBIS00560972]	–	–	–	–	6 to 12 µM	0.6-1^ μM	–
NCC1OC(OC2C(CO)OC(OC3C(O)C(N)CC(N)C3OC3OC(CO)C(O)C(O)C3N)C2OCCNCCc2ccccc2)C(N)C(O)C1O (stereo not shown) [IBIS00560973]	–	–	–	–	3 to 6 µM	0.3 to 0.6 µM	number of mice out of the 10 in the group that were not protected from lethal infection ([5]; 0.1 mg/kg subcutaneously 1 and 3 hour after i.p. infection): 5/10; number of mice out of the 10 in the group that were not protected from lethal infection ([5]; 0.5 mg/kg subcutaneously 1 and 3 hour after i.p. infection): 0/10; number of mice out of the 10 in the group that were not protected from lethal infection ([5]; 1 mg/kg subcutaneously 1 and 3 hour after i.p. infection): 0/10; number of mice out of the 10 in the group that were not protected from lethal infection ([5]; 2 mg/kg subcutaneously 1 and 3 hour after i.p. infection): 0/10; number of mice out of the 10 in the group that were not protected from lethal infection ([5]; 4.5 mg/kg subcutaneously 1 and 3 hour after i.p. infection): 0/10; number of mice out of the 10 in the group that were not protected from lethal infection ([5]; 9 mg/kg subcutaneously 1 and 3 hour after i.p. infection): 0/10; number of mice out of the 10 in the group that were not protected from lethal infection ([5]; 18 mg/kg subcutaneously 1 and 3 hour after i.p. infection): 0/10; number of mice out of the 10 in the group that were not protected from lethal infection ([5]; 37 mg/kg subcutaneously 1 and 3 hour after i.p. infection): 0/10; number of mice out of the 10 in the group that were not protected from lethal infection ([5]; 75 mg/kg subcutaneously 1 and 3 hour after i.p. infection): 0/10; prevention of lethal bacterial infection in mice (in words) ([5]; S. aureus ATCC 13709 i.p., compound s.c.): effective at preventing lethal bacterial infections in mice; number of mice out of the 10 in the group that were not protected from lethal infection ([5]; mouse, in vivo): 1/10
